Data: patent publication US20090220533A1, “Novel T-Helper Antigenic Determinant (THD) Peptides” (priority 2005, published 2009)
No end group written: not given here.

Assays:
HLA-DR4 cell line = biological target: T1, HLA-DR4 cell line (Homo sapiens, UniProt P01903+P01911, /P40V/Q125Y/R42H/S133A/S149N/S66Y/V115G/V209L/W38E); assay: Direct binding of biotinylated p45 at different concentrations to the HLA-DR4 cell line, fluorescence (FIG. 2); conditions: range of concentrations tested
T1 construct: host or cells: EBV-transformed B lymphocyte line homozygous for HLA-DR4
Procedure: In first place, tests were performed for binding to HLA-DR in the different cell lines, incubated with biotinylated p45 at different concentrations. To avoid the possible crystallization of the peptide, this was solubilized with the aid of a sonicator. […] As can be verified, the peptide binding is dose-dependent in the range of concentrations tested.

HLA-DR = assay: Inhibition of biotinylated p45 binding to cell lines by anti-HLA-DR antibody (L243); design: species or system human; conditions: for Percentage of inhibition (%) aDR: biotinylated p45 10 μM
Procedure: (§1) In second place, the HLA-DR4 cell line was incubated in the presence of the biotinylated P45 peptides and antibodies selected due to their specificity to HLA-DR, HLA-DP, HLA-DQ and Class I HLA respectively (FIG. 3).
(§2) In a 96-well plate with U-shaped bottom, the HLA-DR4 cell line was seeded (already defined); (2×10^5 per well), also adding biotinylated P45 peptides (10 μM), alone or together with supernatant of the hybridomas: L243 anti-HLA-DR (ATCC Ref: HB-55), or W6/32 anti-Class I (ATCC Ref: HB-95) or the antibodies 33.1 anti-HLA-DQ or anti-HLA-DP B7/21, which were provided by Dr. Ghislaine Sterkers. All were diluted to (1/500) in a final volume of 100 μl of RPMI with 2.5% FBS.
(§3) % Inhibition=100×((Fp45+aHLA−Fblnk)/(Fp45−Fblnk))
(§4) where Fblnk is the fluorescence measured when the cells were cultured without adding peptide or antibodies (blank), Fp45 is the fluorescence measured when it was incubated with the biotinylated P45 peptides alone, and Fp45+aHLA is the fluorescence measured when it was measured with the biotinylated p45 together with the corresponding HLA antibodies.
(§5) All the assays were performed in triplicate.
(§6) In this way, these tests were repeated on the HLA-DR1, HLA-DR3, HLA-DR7, HLA-DR8, HLA-DR11 cell lines. The inhibition percentages obtained are set down in Table 2.

HLA-DP = assay: Inhibition of biotinylated p45 binding to cell lines by anti-HLA-DP antibody (B7/21); design: species or system human; conditions: biotinylated p45 10 μM
Procedure: as §1, §2, §3, §4, §5, §6

HLA-DQ = assay: Inhibition of biotinylated p45 binding to cell lines by anti-HLA-DQ antibody (33.1); design: species or system human; conditions: for Percentage of inhibition (%) aDQ: biotinylated p45 10 μM
Procedure: as §1, §2, §3, §4, §5, §6

Class I HLA = assay: Inhibition of biotinylated p45 binding to cell lines by anti-Class I antibody (W6/32); design: species or system human; conditions: biotinylated p45 10 μM
Procedure: as §1, §2, §3, §4, §5, §6

[1] = biological target: Class I HLA on the EBV-transformed B cell lines (human); assay: flow cytometry on MOU cells; inhibition of the binding of biotinylated p45 (10 uM) by the antibody diluted 1/500
[2] = biological target: Class I HLA on the EBV-transformed B cell lines (human); assay: flow cytometry on RSH cells; inhibition of the binding of biotinylated p45 (10 uM) by the antibody diluted 1/500
[3] = biological target: Class I HLA on the EBV-transformed B cell lines (human); assay: flow cytometry on HOM2 cells; inhibition of the binding of biotinylated p45 (10 uM) by the antibody diluted 1/500
[4] = biological target: Class I HLA on the EBV-transformed B cell lines (human); assay: flow cytometry on OLGA cells; inhibition of the binding of biotinylated p45 (10 uM) by the antibody diluted 1/500
[5] = biological target: Class I HLA on the EBV-transformed B cell lines (human); assay: flow cytometry on SWEIG cells; inhibition of the binding of biotinylated p45 (10 uM) by the antibody diluted 1/500
[6] = biological target: Class I HLA on the EBV-transformed B cell lines (human); assay: flow cytometry on BOLETH cells; inhibition of the binding of biotinylated p45 (10 uM) by the antibody diluted 1/500
[7] = biological target: T2, HLA-DR8 (DRB1*0802) on OLGA cells (human); assay: flow cytometry on OLGA cells; inhibition by anti-HLA-DR antibody
T2 construct: whole, on cells; On the EBV-transformed B cell line OLGA (ECACC 88052100)

[8] = cell line BOLETH, DR4, DRB1*0401-DQB1*0302
[9] = cell line HOM2, DR1, DRB1*0101-DQB1*0501
[10] = cell line MOU, DR7, DRB1*0701-DQB1*0201
[11] = cell line OLGA, DR8, DRB1*0802-DQB1*0402
[12] = cell line RSH, DR3, DRB1*0302-DQB1*0402
[13] = cell line SWEIG, DR11, DRB1*11011-DQB1*0301

## biotinylated p45: p45 peptide conjugated with biotin (EZ-Link Sulfo-NHS-LC-Biotin) (FKYRMMMRMRAAA; also: biotin (EZ-Link Sulfo-NHS-LC-Biotin), site not given here)
HLA-DR4 cell line
  Dose dependence of peptide binding (fluorescence): dose-dependent
HLA-DR; HLA-DR1 cell line
  Binding of biotinylated peptide to HLA-DR1: bound to HLA-DR1
HLA-DR; all the cell lines (Table 2)
  Capacity of binding to HLA-DR: high capacity of binding
HLA-DR; [8]
  Percentage of inhibition (%) aDR: 59%
HLA-DR; [9]
  Percentage of inhibition (%) aDR: 78%
HLA-DR; [10]
  Percentage of inhibition (%) aDR: 71%
HLA-DR; [11]
  Percentage of inhibition (%) aDR: 92%
HLA-DR; [12]
  Percentage of inhibition (%) aDR: 86%
HLA-DR; [13]
  Percentage of inhibition (%) aDR: 89%
HLA-DP; [8]
  Percentage of inhibition (%) aDP: 7%
HLA-DP; [9]
  Percentage of inhibition (%) aDP: 23%
HLA-DP; [10]
  Percentage of inhibition (%) aDP: 13%
HLA-DP; [11]
  Percentage of inhibition (%) aDP: 4%
HLA-DP; [12]
  Percentage of inhibition (%) aDP: 28%
HLA-DP; [13]
  Percentage of inhibition (%) aDP: 0%
HLA-DQ; all the cell lines (Table 2)
  Capacity of binding to HLA-DQ: high capacity of binding
HLA-DQ; [8]
  Percentage of inhibition (%) aDQ: 75%
HLA-DQ; [9]
  Percentage of inhibition (%) aDQ: 75%
HLA-DQ; [10]
  Percentage of inhibition (%) aDQ: 98%
HLA-DQ; [11]
  Percentage of inhibition (%) aDQ: 88%
HLA-DQ; [12]
  Percentage of inhibition (%) aDQ: 98%
HLA-DQ; [13]
  Percentage of inhibition (%) aDQ: 83%
Class I HLA; [8]
  Percentage of inhibition (%) aClI: 1%
Class I HLA; [9]
  Percentage of inhibition (%) aClI: 13%
Class I HLA; [10]
  Percentage of inhibition (%) aClI: 0%
Class I HLA; [11]
  Percentage of inhibition (%) aClI: 5%
Class I HLA; [12]
  Percentage of inhibition (%) aClI: 6%
Class I HLA; [13]
  Percentage of inhibition (%) aClI: 0%

## W6/32 anti-Class I (ATCC Ref: HB-95) (antibody)
[1]
  Percentage of inhibition (%): 0%
[2]
  Percentage of inhibition (%): 6%
[3]
  Percentage of inhibition (%): 13%
[4]
  Percentage of inhibition (%): 5%
[5]
  Percentage of inhibition (%): 0%
[6]
  Percentage of inhibition (%): 1%

B1: biotinylated p45 (peptide)
peptide: FKYRMMMRMRAAA
modifications: also: biotinylated (Sulfo-NHS-LC-Biotin), site not given here
notes: also called biotinylated P45 peptide; biotinylated P45 peptides
[7]
  binding result: binds
